In PMC7859440, “Transporter Gene Regulation in Sandwich Cultured Human Hepatocytes Through the Activation of Constitutive Androstane Receptor (CAR) or Aryl Hydrocarbon Receptor (AhR)” (Frontiers in Pharmacology, 2021):
Where “and” joins values, the source holds several entries; their conditions need not be identical. Equal entries are not always repeated.

Columns and labels:
UGT1A1 = assay: gene induction in sandwich-cultured human hepatocytes (qRT-PCR); details: for EC50 at 72 h: human, sandwich-cultured human hepatocytes (SCHH)
Description: (§1) Cryopreserved human hepatocytes were quickly thawed at 37°C and then transferred into hepatocyte thawing medium. Cells were pelleted at 100 × g for 10 min and then resuspended in hepatocyte complete plating medium (CP medium). The cells were then seeded at 65,000 cells per well in 96-well collagen I coated plates. After cell attachment (4–6 h post-seeding), CP medium was exchanged for ice-cold complete incubation medium (HI medium) containing BD Matrigel™ at the concentration of 0.25 mg/ml. The cells were then incubated overnight at 37°C in a humidified 5% CO2 incubator. […] Cell death or loss of adhesion of hepatocytes during or after treatment were examined by microscopy.
(§2) A RNeasy 96 Kit (Qiagen) was used to extract the total cellular RNA from sandwich cultured hepatocytes in 96-well plates following the manufacturer's instructions. A total volume of 200 μL RNA was obtained via the column elution provided in the RNeasy kit. Five μL RNA extraction was mixed with TaqMan® Fast Virus 1-Step Master Mix (Life Technologies) in a final reaction volume of 20 μL and qRT-PCR was achieved using a QuantStudio 6 Flex Real-Time PCR System (Life Technologies), following the manufacturer's instructions. β-actin mRNA expression in the SCHH was used as a house-keeping gene for the normalization of target gene expressions. The mRNA levels in SCHH treated with AhR or CAR activators were expressed by a fold change, compared to the gene expressions without the treatment. The 2^−ΔΔCt method ([Livak and Schmittgen, 2001]) was used to analyze the relative changes in gene expression, where the Ct is the cycle number at which the fluorescence in the reaction crosses the preset arbitrary threshold; the ΔCt represents the difference between the Ct target and reference and the ΔΔCt is the difference between the ΔCt of the test and the ΔCt of the preassigned control. Gene expression for each condition is expressed as a fold-change of mean ± standard deviation (SD) from three independent donors (each performed in triplicate). All primer and probe sets were purchased from Life Technologies (Table 2). When concentration-dependent induction observed, the in vitro induction mRNA data were fitted using the sigmoid 3-parameter equation in GraphPad Prism (La Jolla, CA) to estimate the in vitro concentration of inducer that produced half the maximum induction values (EC50).

CYP1A1 = assay: in vitro; details: human
Description: as §1
as §2, with “When concentration-dependent induction observed, the in vitro induction mRNA data were fitted using the sigmoid 3-parameter equation in GraphPad Prism (La Jolla, CA) to estimate the in vitro concentration of inducer that produced half the maximum induction values (EC50).” left out

CYP3A4 = assay: in vitro; details: for EC50 at 72 h: human
Description: as §1
as §2, with “The 2^−ΔΔCt method ([Livak and Schmittgen, 2001]) was used to analyze the relative changes in gene expression, where the Ct is the cycle number at which the fluorescence in the reaction crosses the preset arbitrary threshold; the ΔCt represents the difference between the Ct target and reference and the ΔΔCt is the difference between the ΔCt of the test and the ΔCt of the preassigned control.” left out

SLC10A1 (NTCP) = assay: gene induction in sandwich-cultured human hepatocytes (qRT-PCR); assay type: cell-based; details: SCHH; for SLC10A1 gene suppression (reduction): 3 days, highest concentration treated
SLC16A1 (MCT1) = assay: as above; assay type: cell-based; details: SCHH, 72 h; TCDD 50 nM, OP 50 µM, CITCO 5 µM, PB 1,000 µM (highest conc.); mean ± SD, three donors
SLC22A9 (OAT7) = assay: as above; assay type: cell-based; details: SCHH, 72 h; TCDD 50 nM, OP 50 µM, CITCO 5 µM, PB 1,000 µM (highest conc.); mean ± SD, three donors
SLC15A1 (PEPT1) = assay: as above; assay type: cell-based; details: SCHH, 72 h; TCDD 50 nM, OP 50 µM, CITCO 5 µM, PB 1,000 µM (highest conc.); mean ± SD, three donors
SLC29A1 (ENT1) = assay: as above; assay type: cell-based; details: SCHH, 72 h; TCDD 50 nM, OP 50 µM, CITCO 5 µM, PB 1,000 µM (highest conc.); mean ± SD, three donors
[1] = system: 24 hepatic drug transporter genes (mRNA); assay: gene induction in sandwich-cultured human hepatocytes (qRT-PCR), transporter panel; assay type: cell-based; details: sandwich-cultured human hepatocytes (SCHH), generally, 24 transporter genes, read-out: average fold change (fold induction) of transporter genes
CYP1A2 = details: SCHH, 72 h; TCDD 50 nM, OP 50 µM, CITCO 5 µM, PB 1,000 µM (highest conc.); mean ± SD, three donors
Description: as §1
A RNeasy 96 Kit (Qiagen) was used to extract the total cellular RNA from sandwich cultured hepatocytes in 96-well plates following the manufacturer's instructions. A total volume of 200 μL RNA was obtained via the column elution provided in the RNeasy kit. […] Gene expression for each condition is expressed as a fold-change of mean ± standard deviation (SD) from three independent donors (each performed in triplicate). […]

SLC22A5 (OCTN2) = assay: gene induction in sandwich-cultured human hepatocytes (qRT-PCR); assay type: cell-based; details: SCHH, 72 h; TCDD 50 nM, OP 50 µM, CITCO 5 µM, PB 1,000 µM (highest conc.); mean ± SD, three donors
CYP2B6 = assay: in vitro
Description: as §1
as §2, with “The 2^−ΔΔCt method ([Livak and Schmittgen, 2001]) was used to analyze the relative changes in gene expression, where the Ct is the cycle number at which the fluorescence in the reaction crosses the preset arbitrary threshold; the ΔCt represents the difference between the Ct target and reference and the ΔΔCt is the difference between the ΔCt of the test and the ΔCt of the preassigned control.” left out

SLCO1B3 (OATP1B3) = assay: gene induction in sandwich-cultured human hepatocytes (qRT-PCR); assay type: cell-based; details: SCHH, 72 h; TCDD 50 nM, OP 50 µM, CITCO 5 µM, PB 1,000 µM (highest conc.); mean ± SD, three donors
Description: as §1, §2

ABCC6 (MRP6) = assay: as above; assay type: cell-based; details: SCHH, 72 h; TCDD 50 nM, OP 50 µM, CITCO 5 µM, PB 1,000 µM (highest conc.); mean ± SD, three donors
Description: as §1, §2

SLC22A1 (OCT1) = assay: as above; assay type: cell-based; details: SCHH, 72 h; TCDD 50 nM, OP 50 µM, CITCO 5 µM, PB 1,000 µM (highest conc.); mean ± SD, three donors
Description: as §1, §2

ABCC5 (MRP5) = assay: as above; assay type: cell-based; details: SCHH, 72 h; TCDD 50 nM, OP 50 µM, CITCO 5 µM, PB 1,000 µM (highest conc.); mean ± SD, three donors
Description: as §1, §2

ABCC4 (MRP4) = assay: as above; assay type: cell-based; details: SCHH, 72 h; TCDD 50 nM, OP 50 µM, CITCO 5 µM, PB 1,000 µM (highest conc.); mean ± SD, three donors
Description: as §1, §2

ABCG2 (BCRP) = assay: as above; assay type: cell-based; details: SCHH, 72 h; TCDD 50 nM, OP 50 µM, CITCO 5 µM, PB 1,000 µM (highest conc.); mean ± SD, three donors
Description: as §1, §2

ABCC3 (MRP3) = assay: as above; assay type: cell-based; details: SCHH, 72 h; TCDD 50 nM, OP 50 µM, CITCO 5 µM, PB 1,000 µM (highest conc.); mean ± SD, three donors
Description: as §1, §2

SLC47A1 (MATE1) = assay: as above; assay type: cell-based; details: SCHH, 72 h; TCDD 50 nM, OP 50 µM, CITCO 5 µM, PB 1,000 µM (highest conc.); mean ± SD, three donors
Description: as §1, §2

ABCB1 (MDR1) = assay: as above; assay type: cell-based; details: SCHH, 72 h; TCDD 50 nM, OP 50 µM, CITCO 5 µM, PB 1,000 µM (highest conc.); mean ± SD, three donors
Description: as §1, §2

SLCO1B1 (OATP1B1) = assay: as above; assay type: cell-based; details: SCHH, 72 h; TCDD 50 nM, OP 50 µM, CITCO 5 µM, PB 1,000 µM (highest conc.); mean ± SD, three donors
Description: as §1, §2

SLCO2B1 (OATP2B1) = assay: as above; assay type: cell-based; details: SCHH, 72 h; TCDD 50 nM, OP 50 µM, CITCO 5 µM, PB 1,000 µM (highest conc.); mean ± SD, three donors
Description: as §1, §2

ABCB11 (BSEP) = assay: as above; assay type: cell-based; details: SCHH, 72 h; TCDD 50 nM, OP 50 µM, CITCO 5 µM, PB 1,000 µM (highest conc.); mean ± SD, three donors
Description: as §1, §2

SLCO4C1 (OATP4C1) = assay: as above; assay type: cell-based; details: SCHH, 72 h; TCDD 50 nM, OP 50 µM, CITCO 5 µM, PB 1,000 µM (highest conc.); mean ± SD, three donors
Description: as §1, §2

ABCC2 (MRP2) = assay: as above; assay type: cell-based; details: SCHH, 72 h; TCDD 50 nM, OP 50 µM, CITCO 5 µM, PB 1,000 µM (highest conc.); mean ± SD, three donors
Description: as §1, §2

SLC51B (OSTβ) = assay: as above; assay type: cell-based; details: SCHH, 72 h; TCDD 50 nM, OP 50 µM, CITCO 5 µM, PB 1,000 µM (highest conc.); mean ± SD, three donors
SLC22A7 (OAT2) = assay: as above; assay type: cell-based; details: SCHH, 72 h; TCDD 50 nM, OP 50 µM, CITCO 5 µM, PB 1,000 µM (highest conc.); mean ± SD, three donors
SLC29A2 (ENT2) = assay: as above; assay type: cell-based; details: SCHH, 72 h; TCDD 50 nM, OP 50 µM, CITCO 5 µM, PB 1,000 µM (highest conc.); mean ± SD, three donors
SLC51A (OSTα) = assay: as above; assay type: cell-based; details: SCHH, 72 h; TCDD 50 nM, OP 50 µM, CITCO 5 µM, PB 1,000 µM (highest conc.); mean ± SD, three donors
[2] = SCHH, 72 h, TCDD 50 nM, OP 50 µM, CITCO 5 µM, PB 1,000 µM (highest conc.), mean ± SD, three donors

SMILES: COc1ccc2[nH]c([S+]([O-])Cc3ncc(C)c(OC)c3C)nc2c1 (stereo not shown) [OP, Omeprazole]
- EC50 at 72 h (UGT1A1): 28.7 ± 7.32 µM
- EC50 at 72 h (CYP1A1): 3.34 ± 1.39 µM
- SLC10A1 gene suppression (reduction) (SLC10A1 (NTCP)): about 2 fold

SMILES: Clc1ccc(-c2nc3sccn3c2C=NOCc2ccc(Cl)c(Cl)c2)cc1 [CITCO, 6-(4-chlorophenyl)imidazo[2,1-b][1,3]thiazole-5-carbaldehyde O-(3,4-dichlorobenzyl)oxime]
- EC50 at 72 h (UGT1A1): > 5 µM
- EC50 at 72 h (CYP2B6; human, sandwich-cultured human hepatocytes (SCHH)): 0.16 ± 0.04 µM
- SLC10A1 gene suppression (reduction) (SLC10A1 (NTCP)): about 2 fold
